Measurements as given in patent US9815850B2, “Compounds, compositions and methods” (Denali Therapeutics Inc., priority 2016, dated 2017).

Biological target: GST-hRIPK1 (8-327) (Homo sapiens (Human), UniProt Q13546)
Assay: Fluorescent Polarization Binding (FP Binding) assay
Conditions: 10 nM GST-hRIPK1 (8-327), 5 nM fluorescent labeled ligand; read-out: FP IC50
Method: Fluorescent Polarization Binding (FP Binding) assay (Berger S. B. et al. […] Maki J. L. et al. […] Test Compounds were serially diluted in DMSO at 100 fold final concentrations in the assay (1% DMSO final). […] For negative control the enzyme addition was replaced by assay buffer only. After addition of 5 μL of fluorescent labeled ligand at twice the final concentrations in assay buffer, the plate was incubated at RT for 30 min.

Sequence of GST-hRIPK1 (8-327) (Q13546 8-327): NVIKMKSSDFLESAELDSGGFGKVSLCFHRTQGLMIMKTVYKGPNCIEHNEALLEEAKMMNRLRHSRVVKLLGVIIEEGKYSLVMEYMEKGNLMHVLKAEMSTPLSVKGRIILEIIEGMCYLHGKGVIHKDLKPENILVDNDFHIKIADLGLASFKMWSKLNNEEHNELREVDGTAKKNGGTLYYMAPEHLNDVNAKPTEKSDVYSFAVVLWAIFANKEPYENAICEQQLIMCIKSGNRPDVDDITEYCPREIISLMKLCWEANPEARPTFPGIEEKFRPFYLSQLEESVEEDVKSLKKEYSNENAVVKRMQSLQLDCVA

Question: Which IC50 does the source give for `CN1C(=O)[C@H](NC(=O)c2nnc(Cc3ccccc3)[nH]2)C[C@H](F)c2ccccc21` (mixture of isomers) [Example 11B] here?
Answer: 1000 to 10000 nM

Question: `CN1C(=O)[C@@H](NC(=O)c2cc(Cc3ccccc3)on2)CCc2sc(Cl)cc21` (stereo in doubt) [Example 1A, 5-Benzyl-N-(2-chloro-4-methyl-5-oxo-4H,5H,6H,7H,8H-thieno[3,2-b]azepin-6-yl)-1,2-oxazole-3-carboxamide] was tested. Which IC50 did it give?
Answer: 0.1 to 1000 nM

Question: How did the IC50 turn out when `CN1C(=O)[C@H](NC(=O)c2cc(Cc3ccccc3)on2)CCc2sc(Cl)cc21` (stereo in doubt) [Example 1B, 5-Benzyl-N-(2-chloro-4-methyl-5-oxo-4H,5H,6H,7H,8H-thieno[3,2-b]azepin-6-yl)-1,2-oxazole-3-carboxamide] was run?
Answer: 0.1 to 1000 nM

Question: How did the IC50 turn out when `CN1C(=O)C(NC(=O)c2cc(Cc3ccccc3)on2)[C@@H]2C[C@@H]2c2ccccc21` (stereo in doubt) [Example 7B, 5-benzyl-N-((2S)-4-methyl-3-oxo-1,1a,2,3,4,8b-hexahydrobenzo[b]cyclopropa[d]azepin-2-yl)isoxazole-3-carboxamide] was run?
Answer: > 10000 nM

Question: With `CN1C(=O)C(NC(=O)c2cc(Cc3ccccc3)on2)CC(F)c2ccccc21` (centres unmarked) [Example 2B, 5-benzyl-N-(5-fluoro-1-methyl-2-oxo-2,3,4,5-tetrahydro-1H-benzo[b]azepin-3-yl)isoxazole-3-carboxamide] as the compound, how does the IC50 read?
Answer: 0.1 to 1000 nM

Question: Which IC50 does the source give for `CN1C(=O)[C@@H](NC(=O)c2cc(Cc3ccccc3)on2)[C@H]2C[C@H]2c2ccccc21` [Example 7A, 5-benzyl-N-((2S)-4-methyl-3-oxo-1,1a,2,3,4,8b-hexahydrobenzo[b]cyclopropa[d]azepin-2-yl)isoxazole-3-carboxamide] here?
Answer: 0.1 to 1000 nM

Question: `CN1C(=O)[C@@H](NC(=O)c2nnc(Cc3ccccc3)[nH]2)C[C@@H](F)c2ccccc21` [Example 11A] was tested. Which IC50 did it give?
Answer: 0.1 to 1000 nM

Question: Which IC50 does the source give for `CN1C(=O)[C@@H](NC(=O)c2nnc(Cc3ccccc3)[nH]2)C[C@H](F)c2ccccc21` [Example 12A] here?
Answer: 0.1 to 1000 nM

Question: For `CN1C(=O)[C@H](NC(=O)c2nnc(Cc3ccccc3)[nH]2)C[C@@H](F)c2ccccc21` [Example 12B], which IC50 is on record?
Answer: 0.1 to 1000 nM

Question: `CN1C(=O)[C@@H](NC(=O)c2cc(Cc3ccccc3)[nH]n2)CC2(CC2)c2ccccc21` [Example 59, 5-benzyl-N-[(3S)-1-methyl-2-oxo-1,2,3,4-tetrahydrospiro[l-benzazepine-5,1-cyclopropane]-3-yl]-1H-pyrazole-3-carboxamide] was tested. Which IC50 did it give?
Answer: 0.1 to 1000 nM

Question: With `CN1C(=O)[C@@H](NC(=O)c2cc(Cc3ccccc3)[nH]n2)[C@H]2C[C@H]2c2ccccc21` [Example 60A, 5-benzyl-N-((1aS,2S,8bR)-4-methyl-3-oxo-1,1a,2,3,4,8b-hexahydrobenzo[b]cyclopropa[d]azepin-2-yl)-1H-pyrazole-3-carboxamide] as the compound, how does the IC50 read?
Answer: 0.1 to 1000 nM

Question: With `CN1C(=O)[C@H](NC(=O)c2cc(Cc3ccccc3)[nH]n2)[C@@H]2C[C@@H]2c2ccccc21` [Example 60B, 5-benzyl-N-((1aR,2R,8bS)-4-methyl-3-oxo-1,1a,2,3,4,8b-hexahydrobenzo[b]cyclopropa[d]azepin-2-yl)-1H-pyrazole-3-carboxamide] as the compound, how does the IC50 read?
Answer: > 3000 nM

Question: Which IC50 does the source give for `CN1C(=O)[C@@H](NC(=O)c2coc(C3(c4ccccc4)CC3)n2)COc2ccccc21` [Example 61, (S)—N-(5-methyl-4-oxo-2,3,4,5-tetrahydrobenzo[b][1,4]oxazepin-3-yl)-2-(1-phenylcyclopropyl)oxazole-4-carboxamide] here?
Answer: 0.1 to 1000 nM

Question: `O=C(N[C@H]1COc2cccnc2NC1=O)c1cc(C2(c3ccccc3)CC2)on1` [Example 62, (S)—N-(4-oxo-2,3,4,5-tetrahydropyrido[3,2-b][1,4]oxazepin-3-yl)-5-(1-phenylcyclopropyl)isoxazole-3-carboxamide] was tested. Which IC50 did it give?
Answer: 0.1 to 1000 nM

Question: For `CN1C(=O)[C@@H](NC(=O)c2ncc(C3(c4ccccc4)CC3)s2)COc2cccnc21` [Example 63, (S)—N-(5-methyl-4-oxo-2,3,4,5-tetrahydropyrido[3,2-b][1,4]oxazepin-3-yl)-5-(1-phenylcyclopropyl)thiazole-2-carboxamide], which IC50 is on record?
Answer: 0.1 to 1000 nM

Question: `CN1C(=O)[C@@H](NC(=O)c2nn(Cc3ccccc3)cc2F)COc2ccccc21` [Example 64, (S)-1-benzyl-4-fluoro-N-(5-methyl-4-oxo-2,3,4,5-tetrahydrobenzo[b][1,4]oxazepin-3-yl)-1H-pyrazole-3-carboxamide] was tested. Which IC50 did it give?
Answer: 0.1 to 1000 nM

Question: With `CN1C(=O)[C@@H](NC(=O)c2nnc(Cc3ccccc3)[nH]2)[C@@H]2C[C@@H]2c2ccccc21` [Example 67A, 5-benzyl-N-((1aR,2S,8bS)-4-methyl-3-oxo-1,1a,2,3,4,8b-hexahydrobenzo[b]cyclopropa[d]azepin-2-yl)-4H-1,2,4-triazole-3-carboxamide] as the compound, how does the IC50 read?
Answer: 0.1 to 1000 nM

Question: How did the IC50 turn out when `CN1C(=O)[C@H](NC(=O)c2nnc(Cc3ccccc3)[nH]2)[C@H]2C[C@H]2c2ccccc21` [Example 67B, 5-benzyl-N-((1aS,2R,8bR)-4-methyl-3-oxo-1,1a,2,3,4,8b-hexahydrobenzo[b]cyclopropa[d]azepin-2-yl)-4H-1,2,4-triazole-3-carboxamide] was run?
Answer: > 3000 nM

Question: For `O=C(N[C@H]1COc2ccccc2-n2ccnc21)c1nnc(Cc2ccccc2)[nH]1` [Example 68A, (R)-5-benzyl-N-(4,5-dihydrobenzo[b]imidazo[1,2-d][1,4]oxazepin-4-yl)-4H-1,2,4-triazole-3-carboxamide], which IC50 is on record?
Answer: 0.1 to 1000 nM

Question: `O=C(N[C@@H]1COc2ccccc2-n2ccnc21)c1nnc(Cc2ccccc2)[nH]1` [Example 68B, (S)-5-benzyl-N-(4,5-dihydrobenzo[b]imidazo[1,2-d][1,4]oxazepin-4-yl)-4H-1,2,4-triazole-3-carboxamide] was tested. Which IC50 did it give?
Answer: > 3000 nM

Question: `O=C(N[C@H]1CCc2ccccc2-n2cnnc21)c1nnc(Cc2ccccc2)[nH]1` [Example 69A, (S)-5-benzyl-N-(5,6-dihydro-4H-benzo[f][1,2,4]triazolo[4,3-a]azepin-4-yl)-4H-1,2,4-triazole-3-carboxamide] was tested. Which IC50 did it give?
Answer: 0.1 to 1000 nM

Question: Which IC50 does the source give for `O=C(N[C@@H]1CCc2ccccc2-n2cnnc21)c1nnc(Cc2ccccc2)[nH]1` [Example 69B, (R)-5-benzyl-N-(5,6-dihydro-4H-benzo[f][1,2,4]triazolo[4,3-a]azepin-4-yl)-4H-1,2,4-triazole-3-carboxamide] here?
Answer: > 3000 nM

Question: For `O=C(N[C@H]1COc2ccccc2-n2ccnc21)c1cc(Cc2ccccc2)on1` [Example 70A, (R)-5-benzyl-N-(4,5-dihydrobenzo[b]imidazo[1,2-d][1,4]oxazepin-4-yl)isoxazole-3-carboxamide], which IC50 is on record?
Answer: 0.1 to 1000 nM

Question: `O=C(N[C@@H]1COc2ccccc2-n2ccnc21)c1cc(Cc2ccccc2)on1` [Example 70B, (S)-5-benzyl-N-(4,5-dihydrobenzo[b]imidazo[1,2-d][1,4]oxazepin-4-yl)isoxazole-3-carboxamide] was tested. Which IC50 did it give?
Answer: > 3000 nM

Question: With `O=C(N[C@H]1CCc2ccccc2-n2cnnc21)c1cc(Cc2ccccc2)on1` [Example 71A, (S)-5-benzyl-N-(5,6-dihydro-4H-benzo[f][1,2,4]triazolo[4,3-a]azepin-4-yl)isoxazole-3-carboxamide] as the compound, how does the IC50 read?
Answer: 0.1 to 1000 nM

Question: How did the IC50 turn out when `O=C(N[C@@H]1CCc2ccccc2-n2cnnc21)c1cc(Cc2ccccc2)on1` [Example 71B, (R)-5-benzyl-N-(5,6-dihydro-4H-benzo[f][1,2,4]triazolo[4,3-a]azepin-4-yl)isoxazole-3-carboxamide] was run?
Answer: > 3000 nM
